Measurements: PMC6522510 (Nature Communications, 2019)
pEC50: −log10 of the molar value.

Experiments:
CHRF288-11 [1] = test: Secondary dose-response HTS, Cell Titer Glo; assay type: cell-based, human; conditions: Homo sapiens, HTS; secondary high-throughput screen; CHRF288-11; read-out: average effective concentration, CHRF288-11
CMS [2] = test: Secondary dose-response HTS, Cell Titer Glo; assay type: cell-based, human; conditions: Homo sapiens, HTS, read-out: average effective concentration, CMS
M07e [3] = test: Secondary dose-response HTS, Cell Titer Glo; assay type: cell-based, human; conditions: Homo sapiens, M-07e; secondary high-throughput screen; M07e; read-out: average effective concentration, M07e
ML2 = test: Secondary dose-response HTS, Cell Titer Glo; assay type: cell-based, human; conditions: Homo sapiens; secondary high-throughput screen; ML-2; read-out: average effective concentration, ML-2
U937 [4] = test: Secondary dose-response HTS, Cell Titer Glo; assay type: cell-based, human; conditions: Homo sapiens, U-937; secondary high-throughput screen; U937; read-out: average effective concentration, U937
MOLM-13 [5] = test: cells; set-up: species or system AML cell lines (8); Secondary HTS, 10-point dose-response in triplicate, Cell Titer Glo viability, four-parameter fit EC50; conditions: Homo sapiens, MOLM-13, 72 h, read-out: MOLM-13
MV4-11 [6] = test: cells; set-up: species or system AML cell lines (8); Secondary HTS, 10-point dose-response in triplicate, Cell Titer Glo viability, four-parameter fit EC50; conditions: Homo sapiens, MV4-11, 72 h, read-out: MV4-11
CMK [7] = test: cells; set-up: species or system AML cell lines (8); Secondary HTS, 10-point dose-response in triplicate, Cell Titer Glo viability, four-parameter fit EC50; conditions: Homo sapiens, CMK, 72 h, read-out: CMK
CMK [8] = test: Secondary dose-response HTS, Cell Titer Glo; assay type: cell-based, human; conditions: Homo sapiens, CMK, read-out: average effective concentration, CMK
CHRF288-11 [9] = test: cells; set-up: species or system AML cell lines (8); Secondary HTS, 10-point dose-response in triplicate, Cell Titer Glo viability, four-parameter fit EC50; conditions: 72 h, read-out: CHRF288-11
CMS [10] = test: cells; set-up: species or system AML cell lines (8); Secondary HTS, 10-point dose-response in triplicate, Cell Titer Glo viability, four-parameter fit EC50; conditions: 72 h, read-out: CMS
M07e [11] = test: cells; set-up: species or system AML cell lines (8); Secondary HTS, 10-point dose-response in triplicate, Cell Titer Glo viability, four-parameter fit EC50; conditions: M-07e, 72 h, read-out: M07e
ML-2 [12] = test: cells; set-up: species or system AML cell lines (8); Secondary HTS, 10-point dose-response in triplicate, Cell Titer Glo viability, four-parameter fit EC50; conditions: Homo sapiens, ML-2, 72 h, read-out: ML-2
U937 [13] = test: cells; set-up: species or system AML cell lines (8); Secondary HTS, 10-point dose-response in triplicate, Cell Titer Glo viability, four-parameter fit EC50; conditions: Homo sapiens, U-937, 72 h, read-out: U937
CHRF288-11 [14] = system: CHRF288-11; set-up: species or system AML cell lines (8); Primary HTS, single concentration about 10 uM, Cell Titer Glo viability; log10 luminescence, per cent inhibition relative to cycloheximide control; conditions: 72 h, relative to cycloheximide control, log10 luminescence; inhibitor
CMK [15] = system: CMK; set-up: species or system AML cell lines (8); Primary HTS, single concentration about 10 uM, Cell Titer Glo viability; log10 luminescence, per cent inhibition relative to cycloheximide control; conditions: 72 h, relative to cycloheximide control, log10 luminescence; inhibitor
CMS [16] = system: CMS; set-up: species or system AML cell lines (8); Primary HTS, single concentration about 10 uM, Cell Titer Glo viability; log10 luminescence, per cent inhibition relative to cycloheximide control; conditions: 72 h, relative to cycloheximide control, log10 luminescence; inhibitor
M07e [17] = system: M07e; set-up: species or system AML cell lines (8); Primary HTS, single concentration about 10 uM, Cell Titer Glo viability; log10 luminescence, per cent inhibition relative to cycloheximide control; conditions: 72 h, relative to cycloheximide control, log10 luminescence; inhibitor
ML-2 [18] = system: ML-2; set-up: species or system AML cell lines (8); Primary HTS, single concentration about 10 uM, Cell Titer Glo viability; log10 luminescence, per cent inhibition relative to cycloheximide control; conditions: 72 h, relative to cycloheximide control, log10 luminescence; inhibitor
MOLM-13 [19] = system: MOLM-13; set-up: species or system AML cell lines (8); Primary HTS, single concentration about 10 uM, Cell Titer Glo viability; log10 luminescence, per cent inhibition relative to cycloheximide control; conditions: 72 h, relative to cycloheximide control, log10 luminescence; inhibitor
MV4-11 [20] = system: MV4-11; set-up: species or system AML cell lines (8); Primary HTS, single concentration about 10 uM, Cell Titer Glo viability; log10 luminescence, per cent inhibition relative to cycloheximide control; conditions: 72 h, relative to cycloheximide control, log10 luminescence; inhibitor
U937 [21] = system: U937; set-up: species or system AML cell lines (8); Primary HTS, single concentration about 10 uM, Cell Titer Glo viability; log10 luminescence, per cent inhibition relative to cycloheximide control; conditions: 72 h, relative to cycloheximide control, log10 luminescence; inhibitor
MOLM-13 [22] = test: Secondary dose-response HTS, Cell Titer Glo; assay type: cell-based, human; conditions: Homo sapiens; secondary high-throughput screen; MOLM-13; read-out: average effective concentration, MOLM-13
MV4-11 [23] = test: Secondary dose-response HTS, Cell Titer Glo; assay type: cell-based, human; conditions: Homo sapiens; secondary high-throughput screen; MV4-11; read-out: average effective concentration, MV4-11
[24] = secondary high-throughput screen
[25] = secondary high-throughput screen, CMS

Row | Compound | pEC50 (CHRF288-11 [1]) | pEC50 (M07e [3]) | pEC50 (ML2) | pEC50 (U937 [4]) | pEC50 (MOLM-13 [5]) | pEC50 (MV4-11 [6]) | pEC50 (CMK [7]) | pEC50 (CHRF288-11 [9]) | pEC50 (M07e [11]) | pEC50 (ML-2 [12]) | pEC50 (MOLM-13 [22]) | other results
1 | C=C1CC[C@@H]2[C@](C)(CO)[C@H](O)CC[C@@]2(C)[C@@H]1C/C=C1/C(=O)OC[C@H]1O [ANDROGRAPHOLIDE] | 5.07 | 5.00 | 5.42 | 5.77 | < 5.00 | < 5.00 | < 5.00 |  |  |  |  | pEC50 (CMS [2]): 5.24
2 | O=C(Nc1c[nH]nc1-c1nc2ccc(CN3CCOCC3)cc2[nH]1)NC1CC1 [AT9283] |  | 7.05 | 5.18 | 5.21 | < 5.00 | < 5.00 |  | < 5.00 |  |  |  | pEC50 (CMK [8]; [24]): 6.72; pEC50 (CMS [2]; [25]): 6.72
3 | COc1cc(CCc2cc(NC(=O)c3ccc(N4C[C@@H](C)N[C@@H](C)C4)cc3)n[nH]2)cc(OC)c1 [AZD4547] |  |  |  |  |  |  |  | < 5.00 | < 5.00 | < 5.00 |  | pEC50 (CMS [10]): < 5.00; pEC50 (U937 [13]): < 5.00
4 | Nc1cc(F)ccc1NC(=O)c1ccc(CNC(=O)/C=C/c2cccnc2)cc1 [CHIDAMIDE] |  | 5.82 | 5.06 |  | < 5.00 | < 5.00 |  | < 5.00 |  |  |  | pEC50 (CMK [8]): 6.60; pEC50 (CMS [2]): 5.00; pEC50 (U937 [13]): < 5.00
5 | CC(C)C[C@H](NC(=O)[C@H](CCc1ccccc1)NC(=O)CN1CCOCC1)C(=O)N[C@@H](Cc1ccccc1)C(=O)N[C@@H](CC(C)C)C(=O)[C@@]1(C)CO1 [Carfilzomib] |  |  |  |  |  |  |  |  |  | 8.54 |  | 
6 | Nc1nc(Cl)nc2c1ncn2[C@@H]1O[C@H](CO)[C@@H](O)[C@@H]1F [Clofarabine, clofarabine] |  |  |  |  |  |  |  |  |  | 6.90 |  | 
7 | O=C(/C=C/c1ccc(CN(CCO)CCc2c[nH]c3ccccc23)cc1)NO [DACINOSTAT] | 9.00 | 9.00 | 9.00 | 9.00 | < 5.00 | < 5.00 |  |  |  |  |  | pEC50 (CMK [8]; [24]): 9.00; pEC50 (CMS [2]; [25]): 9.00; CHRF288-11 %inh (CHRF288-11 [14]): 161.9%; CMK %inh (CMK [15]): 120.3%; CMS %inh (CMS [16]): 111%; M07e %inh (M07e [17]): 149.6%; ML-2 %inh (ML-2 [18]): 65.79%; MOLM-13 %inh (MOLM-13 [19]): 102.9%; MV4-11 %inh (MV4-11 [20]): 78.77%; U937 %inh (U937 [21]): 87.23%
8 | Nc1ncn([C@H]2C[C@H](O)[C@@H](CO)O2)c(=O)n1 [DECITABINE] | 5.15 |  |  | 6.51 |  | 5.02 |  |  | < 5.00 | < 5.00 | 9.00 | pEC50 (CMK [8]; [24]): 5.37; pEC50 (CMS [10]): < 5.00
9 | COc1cccc2c1C(=O)c1c(O)c3c(c(O)c1C2=O)C[C@@](O)(C(=O)CO)C[C@@H]3O[C@H]1C[C@H](N)[C@H](O)[C@H](C)O1 [DOXORUBICIN] | 6.89 | 6.64 | 6.36 | 6.85 |  |  | < 5.00 | 6.87 |  |  | 7.44 | pEC50 (MV4-11 [23]): 7.29; pEC50 (CMS [2]; [25]): 6.13
10 | CC(=O)O[C@@]12CO[C@@H]1C[C@H](O)[C@@]1(C)C(=O)[C@H](O)C3=C(C)[C@@H](OC(=O)[C@H](O)[C@@H](NC(=O)OC(C)(C)C)c4ccccc4)C[C@@](O)([C@@H](OC(=O)c4ccccc4)[C@H]21)C3(C)C [Docetaxel, docetaxel] |  |  |  |  |  |  |  |  |  | < 5.00 |  | 
11 | CCOc1ccccc1-n1c(C(C)N2CCN(C(=O)COc3ccc(Cl)cc3)CC2)nc2ccccc2c1=O (centres unmarked) [ERASTIN] | 6.72 | 5.12 | 6.27 |  | < 5.00 | < 5.00 | < 5.00 |  |  |  |  | pEC50 (CMS [2]; [25]): 5.02; pEC50 (U937 [13]): < 5.00
12 | COc1cc([C@@H]2c3cc4c(cc3[C@@H](O[C@@H]3O[C@@H]5CO[C@@H](C)O[C@H]5[C@H](O)[C@H]3O)[C@H]3COC(=O)[C@H]23)OCO4)cc(OC)c1O [ETOPOSIDE] | 5.44 | 5.77 | 6.15 | 5.37 |  |  | < 5.00 |  |  |  | 5.68 | pEC50 (MV4-11 [23]): 6.17; pEC50 (CMS [2]; [25]): < 5.00
13 | Cc1cc(Nc2cc(CN3CCOCC3)c3nc(C)c(Cc4ccc(Cl)cc4F)n3n2)n[nH]1 [GANDOTINIB] | 7.16 | 5.52 | 5.03 | 6.03 | < 5.00 | < 5.00 | < 5.00 |  |  |  |  | pEC50 (CMS [2]): 6.44
14 | NC(=O)c1ccc(I)c([N+](=O)[O-])c1 [INIPARIB] |  |  |  |  |  | < 5.00 |  | < 5.00 | < 5.00 | < 5.00 | < 5.00 | pEC50 (CMS [10]): < 5.00; pEC50 (U937 [13]): < 5.00
15 | C=CC(=O)N1CCC[C@@H](n2nc(-c3ccc(Oc4ccccc4)cc3)c3c(N)ncnc32)C1 [Ibrutinib] |  |  |  |  |  |  |  | < 5.00 | < 5.00 | < 5.00 |  | 
16 | O=C(O)CNC(=O)C(=O)O [N-OXALYLGLYCINE] |  |  |  | 5.48 |  | < 5.00 |  | < 5.00 | < 5.00 | < 5.00 | 5.64 | pEC50 (CMS [10]): < 5.00
17 | Cn1cc(CNCC2CCN(c3ncc(C(=O)NO)cn3)CC2)c2ccccc21 [Quisinostat] |  |  |  |  |  |  |  |  | 8.38 | 8.41 |  | pEC50 (U937 [13]): 8.28
18 | CN1CCC(CNc2ccc3ncc(-c4cccc(OC(F)(F)F)c4)n3n2)CC1 [SGI-1776] | < 5.00 | < 5.00 | < 5.00 | 5.00 |  |  | < 5.00 |  |  |  | 5.80 | pEC50 (MV4-11 [23]): 6.00; pEC50 (CMS [2]): < 5.00
19 | CN(C)C1CCN(C(=O)c2ccc(NC(=O)Nc3ccc(-c4nc(N5CCOCC5)nc(N5CCOCC5)n4)cc3)cc2)CC1 [SJ000784327, PF-05212384] |  |  |  |  |  |  |  | < 5.00 | < 5.00 | < 5.00 |  | pEC50 (CMS [10]): < 5.00
20 | COc1cc(C)c2c(Oc3cccc(C(F)(F)F)c3)c(OC)cc(NC(C)CCCN)c2n1 (centres unmarked) [TAFENOQUINE] | < 5.00 | < 5.00 | < 5.00 | < 5.00 | < 5.00 | < 5.00 | < 5.00 |  |  |  |  | pEC50 (CMS [2]): < 5.00; CHRF288-11 %inh (CHRF288-11 [14]): 134.8%; CMK %inh (CMK [15]): 107.9%; CMS %inh (CMS [16]): 39.64%; M07e %inh (M07e [17]): 38.9%; ML-2 %inh (ML-2 [18]): 62.38%; MOLM-13 %inh (MOLM-13 [19]): 98.6%; MV4-11 %inh (MV4-11 [20]): 34.4%; U937 %inh (U937 [21]): 46.41%
